This passage reports GI50 results from patent publication US10781214B2, “Kinase inhibitor against wild-type and mutant EGFR” (PRECEDO PHARMACEUTICALS CO., LTD, priority 2015, dated 2020).

Format in all cases: cell-based
One assay concerns mouse pro-B cell BaF3. Put plainly: Cell growth, Cell Titer-Glo, 72 h: BaF3. The settings on record: BaF3 cells, 72 h, read-out: GI50. From the text: (§1) Compounds of the present invention were further evaluated for their selectivity in inhibiting proliferation of cancer cells by testing effects of the novel kinase inhibitors on proliferation of cancer cells. In the examples the following cells were selected: human non-small cell lung cancer cell NCI-H1975 (expressing EGFR L858R/T790M double-mutant gene), human-derived non-small cell lung cancer cell PC-9 (expressing EGFR delE746_A750 mutant gene), human-derived non-small cell lung cancer cell HCC827 (expressing EGFR delE746_A750 mutant gene), human lung adenocarcinoma cell HCC4006 (expressing EGFR delE746_A750 mutant gene), human non-small cell lung cancer cell NCI-H3255 (expressing EGFR L858R mutant gene), human skin squamous carcinoma cell A431 (expressing wild-type EGFR gene), human non-small cell lung cancer cell A549 (expressing wild-type EGFR gene), human non-small cell lung cancer cell NCI-H460 (expressing wild-type EGFR gene), human non-small cell lung cancer cell NCI-H2122 (expressing wild-type EGFR gene), Chinese hamster ovary (CHO) cell (Cricetulus griseus, hamster, Chinese, ovary), Chinese hamster lung cell (CHL), mouse pro-B cell BaF3. The cells above were all purchased from (USA).
(§2) The cells were incubated for 72 h, and then the number of viable cells was determined via quantitative determination with a microplate reader by using Cell Titer-Glo® (Promega, the USA) Luminescent Cell Viability Assay kit.
On the technique in general: In ATP-based viability assays light output follows the ATP content of the culture.

Assay [1] relates to NCI-H3255 (expressing EGFR L858R mutant gene). Put plainly: Cancer cell growth, Cell Titer-Glo, 72 h: NCI-H3255. The settings on record: Homo sapiens; NCI-H3255 cells, 72 h; read-out: GI50.
Description: as §1, §2

Assay [2] has as its system PC-9 (expressing EGFR delE746_A750 mutant gene). Put plainly: Cancer cell growth, Cell Titer-Glo, 72 h: PC-9. The settings on record: Homo sapiens; PC-9 cells, 72 h; read-out: GI50.
Description: as §1, §2

The test system of assay [3] is NCI-H1975 (expressing EGFR L858R/T790M double-mutant gene). Put plainly: Cancer cell growth, Cell Titer-Glo, 72 h: NCI-H1975. The settings on record: Homo sapiens; NCI-H1975 cells, 72 h; read-out: GI50.
Description: as §1, §2

Assay [4] deals with BaF3-FL-EGFR-T790M-L858R (stably expressing EGFR T790M/L858R mutant kinase). In words: Cell growth, Cell Titer-Glo, 72 h: BaF3-FL-EGFR-T790M-L858R. The settings on record: Mus musculus, BaF3-FL-EGFR-T790M-L858R cells.
Description: (§3) In addition, this example further uses: mouse BaF3-TEL-EGFR (stably expressing wild-type EGFR kinase), mouse BaF3-TEL-EGFR-L858R (stably expressing EGFR L858R mutant kinase), mouse BaF3-TEL-EGFR-T790M (stably expressing EGFR T790M mutant kinase), mouse BaF3-FL-EGFR-DeI19 (stably expressing EGFR delE746_A750 mutant kinase), mouse BaF3-FL-EGFR-T790M-L858R (stably expressing EGFR T790M/L858R mutant kinase), mouse BaF3/P210 (stably expressing bcr/abl˜(P210) mutant kinase), mouse BaF3-TEL-ABL-T315I (stably expressing ABLT315I mutant kinase), mouse BaF3-FLT3-ITD (stably expressing FLT3/ITD mutant kinase), mouse BaF3-TEL-JAK2 (stably expressing JAK2 kinase), mouse BaF3-TEL-JAK3 (stably expressing JAK3 kinase), mouse BaF3-TPR-MET (stably expressing MET kinase), mouse BaF3-TEL-BLK (stably expressing BLK kinase), mouse BaF3-TEL-ABL (stably expressing ABL kinase), mouse BaF3-TEL-BMX (stably expressing BMX kinase), mouse BaF3-TEL-ALK (stably expressing ALK kinase). The above cell lines were all constructed by our laboratory according to the following method: the kinase region sequences of human […], EGFR L858R, EGFR T790M, EGFR delE746_A750, EGFR T790M/L858R, bcr/abl˜(P210), ABL T315I, FLT3/ITD, JAK2, JAK3, MET, BLK, ABL, BMX, ALK were amplified respectively by PCR, inserted respectively into MSCV-Puro vectors harboring N-terminal fragment and/or NPM fragment and/or TPR fragment (Clontech), then the vectors were stably transfected into mouse BaF3 cells by retrovirus methods and growth factor IL-3 was removed, eventually obtaining cell lines that are transferred protein (EGFR, EGFR L858R, EGFR T790M, EGFR delE746_A750, EGFR T790M/L858R, bcr/abl˜(P210), ABL T315I, FLT3/ITD, JAK2, JAK3, MET, BLK, ABL, BMX, ALK)-dependent.
as §2

In assay [5] the test system is BaF3-TEL-EGFR (stably expressing wild-type EGFR kinase). In words: Cell growth, Cell Titer-Glo, 72 h: BaF3-TEL-EGFR. The settings on record: Mus musculus, BaF3-TEL-EGFR cells, read-out: GI50.
Description: as §3, §2

The subject of assay [6] is A549 (expressing wild-type EGFR gene). Put plainly: Cancer cell growth, Cell Titer-Glo, 72 h: A549. The settings on record: Homo sapiens; A549 cells, 72 h; read-out: GI50.
Description: as §1, §2

In assay [7] the test system is A431 (expressing wild-type EGFR gene). Put plainly: Cancer cell growth, Cell Titer-Glo, 72 h: A431. The settings on record: Homo sapiens, A-431; A431 cells, 72 h; read-out: GI50.
Description: as §1, §2

Structures are written as SMILES.

Broadly, the GI50 is the concentration at which growth is held to half of that of the control. Consider `C=CC(=O)N1CCC[C@@H](n2nc(-c3ccc(OCc4cccc(F)c4)c(C)c3)c3c(N)ncnc32)C1` [Compound 14, (R)-1-(3-(4-amino-3-(3-methyl-4-((3-fluorobenzyl)oxy)phenyl)-1H-pyrazolo[3,4-d]pyrimidin-1-yl)piperidin-1-yl)prop-2-en-1-one], for which the GI50 with mouse pro-B cell BaF3 is 2.5 µM; in assay [1] it was 0.009 µM; in assay [2], 0.016 µM; in assay [3] it was 0.038 µM; in assay [4] it was less than 0.0003 µM; in assay [5], 1.4 µM.

For the compound `C=CC(=O)N1CCC[C@@H](n2nc(-c3ccc(OCc4cccc(F)c4)c(C#N)c3)c3c(N)ncnc32)C1` [Compound 16, (R)-1-(3-(4-amino-3-(3-cyano-4-((3-fluorobenzyl)oxy)phenyl)-1H-pyrazolo[3,4-d]pyrimidin-1-yl)piperidin-1-yl)prop-2-en-1-one], the GI50 with mouse pro-B cell BaF3 was greater than 10 µM; in assay [1] it was 0.028 µM; in assay [2], 0.051 µM; in assay [4], 0.052 µM; in assay [5], greater than 10 µM.

Take `C=CC(=O)N1CCC[C@@H](n2nc(-c3ccc(OCc4ccccc4F)c(Cl)c3)c3c(N)ncnc32)C1` [Compound 18, (R)-1-(3-(4-amino-3-(3-chloro-4-((2-fluorobenzyl)oxy)phenyl)-1H-pyrazolo[3,4-d]pyrimidin-1-yl)piperidin-1-yl)prop-2-en-1-one]: the GI50 amounted to 8.5 µM in the assay on mouse pro-B cell BaF3; 0.02 µM in assay [1]; 0.014 µM in assay [2]; 0.001 µM in assay [4]; 4.2 µM in assay [5].

On to `C=CC(=O)N1CCC[C@@H](n2nc(-c3ccc(OCc4cccc(F)c4)nc3)c3c(N)ncnc32)C1` [Compound 19, (R)-1-(3-(4-amino-3-(6-((3-fluorobenzyl)oxy)pyridin-3-yl)-1H-pyrazolo[3,4-d]pyrimidin-1-yl)piperidin-1-yl)prop-2-en-1-one], for which the GI50 (in the assay with mouse pro-B cell BaF3; in assay [1]; in assay [2]; in assay [3]) was greater than 10 µM in each case.

As for `C=CC(=O)N1CCC[C@@H](n2nc(-c3ccc(CN4CCN(C)CC4)cc3)c3c(N)ncnc32)C1` [Compound 20], the concentration for 50% growth inhibition (GI50) is greater than 10 µM with mouse pro-B cell BaF3; 4.9 µM in assay [1]; greater than 10 µM in assay [6]; 7 µM in assay [2]; greater than 10 µM in assay [3]; greater than 10 µM in assay [4].

For `C=CC(=O)N1CCC[C@@H](n2nc(-c3ccc(OCc4cc(F)ccc4F)c(Cl)c3)c3c(N)ncnc32)C1` [Compound 23, (R)-1-(3-(4-amino-3-(3-chloro-4-((2,5-difluorobenzyl)oxy)phenyl)-1H-pyrazolo[3,4-d]pyrimidin-1-yl)piperidin-1-yl)prop-2-en-1-one], the GI50 in the assay on mouse pro-B cell BaF3 was 4.3 µM; in assay [1] it was less than 0.0003 µM; in assay [6], 3.8 µM; in assay [2], 0.007 µM; in assay [3] it was 0.007 µM; in assay [4], less than 0.0003 µM.

For `C=CC(=O)N1CCC[C@@H](n2nc(-c3ccc(OCc4cccc(F)c4)cc3F)c3c(N)ncnc32)C1` [Compound 24, (R)-1-(3-(4-amino-3-(2-fluoro-4-((3-fluorobenzyl)oxy)phenyl)-1H-pyrazolo[3,4-d]pyrimidin-1-yl)piperidin-1-yl)prop-2-en-1-one], the GI50 in the assay on mouse pro-B cell BaF3 was 1.9 µM; in assay [1] it was less than 0.0003 µM; in assay [6] it was greater than 10 µM; in assay [2] it was 0.006 µM; in assay [3], 1.6 µM; in assay [4] it was less than 0.0003 µM.

`C=CC(=O)Nc1cc(Cn2nc(-c3ccc(F)c(Cl)c3)c3c(N)ncnc32)ccc1F` [Compound 38]: the GI50 in the assay with mouse pro-B cell BaF3 is 4.6 µM; in assay [1], 3.8 µM; in assay [6], 2.8 µM; in assay [2], 1.7 µM; in assay [3], 5.1 µM; in assay [7], 8.7 µM. Further, the GI50 in assay [5] turned out to be 6.6 µM.
